Results taken from patent US20150297603A1, “HIGH DRUG LOAD TABLET FORMULATION OF [(1R), 2S]-2-AMINOPROPIONIC ACID 2-[4-(4-FLUORO-2-METHYL-1H-INDOL-5-YLOXY)-5-METHYLPYRROLO[2,1-f][1,2,4]TRIAZIN-6-YLOXY]-1-METHYLETHYL ESTER” (Bristol-Myers Squibb Company, priority 2011, published 2015).

Key:
Format in all cases: physicochemical
[1] = pH dependent solubility
From the text: (§1) Brivanib alaninate is an ester compound that is formulated as a free base.

[2] = Stability of solid drug substance on storage; conditions: stored at room temperature protected from moisture
From the text: (§2) Its main degradation pathway at neutral and basic pH is hydrolysis to the parent compound, brivanib. Under acidic conditions, it can also undergo diaryl ether cleavage in solution as shown below.

[3] = pKa of brivanib alaninate; conditions: free base
From the text: as §1

[4] = Degradation of drug during wet granulation process; conditions: wet granulation process (water as processing aid)
From the text: The use of wet granulation process for brivanib alaninate was not expected to be suitable because brivanib alaninate degrades by hydrolysis. Therefore, any person skilled in the art of pharmaceutical formulation would logically implement all measures to minimize the exposure of drug to water during handling, formulation, processing, and storage.
The manufacturing process of this formulation generally involves mixing the drug with dry powder excipients, such as with one or more binder, disintegrant, and filler. Water is then added to this premix while it is being continuously mixed in a mixer such as a high shear granulator. Alternatively, the binder may not be added as a dry powder to the premix, but dissolved in water. Addition of water with continuous mixing leads to the formation of granules, or granulation. The granules are then dried in dry, hot air using equipment and processes such as fluid bed drying or tray drying. Once dried, the granules may be milled using equipment such as comil or Fitzmil to reduce and/or reduce the width of distribution of particle size of granules. The granules are then mixed with extra-granular ingredients, which may include one or more of disintegrant, filler, glidant, and lubricant. The final blend is then compressed on a tablet press into core tablets. The core tablets may optionally be coated with a nonfunctional film coat.

[5] = Stability in solution as a function of pH; conditions: at acidic pH and at high pH
From the text: as §1, §2

solubility ([1]; acidic pH): increasing solubility
solubility ([1]; neutral and basic pH): limited solubility
stability of solid drug substance [2]: acceptable stability
pKa [3]: 6.9
degradation [5]: degrades rapidly
Compound: Cc1cc2c(F)c(Oc3ncnn4cc(OC[C@@H](C)OC(=O)[C@H](C)N)c(C)c34)ccc2[nH]1 [Brivanib alaninate, [(1R), 2S]-2-aminopropionic acid 2-[4-(4-fluoro-2-methyl-1H-indol-5-yloxy)-5-methylpyrrolo[2,1-f][1,2,4]triazin-6-yloxy]-1-methylethyl ester]
degradation of the drug by wet granulation [4]: did not really result in significant degradation
